From patent US20250027930A1, “SMALL MOLECULES FOR REPROGRAMING ANTI-TUMOR IMMUNITY OF T CELLS” (THE SCRIPPS RESEARCH INSTITUTE, priority 2021, published 2025)

Key:
OT-I splenocytes = assay: OT-I splenocyte culture with KRAS (G12C) inhibitors 9/12 and analogues; type: cell-based, mouse; conditions: added D0 at 5 uM or D3 at 5 uM or 10 uM, kept till day 7
Procedure: We performed additional studies to examine the observed activities of KRAS (G12C) inhibitors in modulating T cell properties. First, OT-I splenocytes were activated with OVA257-264 peptide (500 nM) for 3 days in the presence of 60 IU/mL IL-2 and cultured for another 7 days. Inhibitor 9 (i9) or inhibitor 12 (i12) was added on Day0 (D0) upon activation at 5 uM and the concentration was kept till day 7 or added on Day3 (D3) after activation at 5 uM or 10 uM and the concentration was kept till day 7 for analysis.
Other than inhibitors 9 and 12, we also tested activities of two analogues of these KRAS (G12C) inhibitors. The analogues, Z7 and Z6, are derived from Inhibitor 9 and Inhibitor 12, respectively. They have an alkynyl group for click reaction which is used for ABPP analysis to find the targets of the inhibitors (FIG. 18A). In the studies, OT-I splenocytes were activated with OVA257-264 peptide (500 nM) for 3 days in the presence of 60 IU/mL IL-2 and cultured for another 7 days. 5 uM […], i9, z6 or z7 were added on Day0 (DO) upon activation.
As noted above, Inhibitor 9 and Inhibitor 12 have a cysteine-reactive group ([…] and acrylamide) that allows covalent binding of i9 and i12 to a cysteine residue in proteins. We further tested two analogue compounds, ZT-1 and ZT-2, that are not capable of forming the covalent binding. […] Cell number was recorded on day 5 and day 7. […]

anti-GD2 CAR-T cells = assay: Anti-GD2 CAR-T cell expansion with Inhibitor 9/12, phenotype and cell number; conditions: for expression of inhibitory receptors (PD-1, LAG3, Tim-3 and CD39) of anti-GD2 CAR-T cells / progenitor features of anti-GD2 CAR-T cells: Inhibitor 9 at 2 or 3 uM, Inhibitor 12 at 1 or 2 uM, day 15
P14 cells = assay: P14 splenocyte in vitro activation, re-stimulation and expansion; type: cell-based, mouse; conditions: 80 mM; for Fold of proliferation, Normalized to W/O: P14 cells
OT-1 cells = assay: OT-I-Tcf7GFP splenocyte screen: proliferation and Tim3−TCF-1+ ratio; type: cell-based, mouse; conditions: Day7, 80 mM
Procedure: Cell number was recorded on day 3 and day 7. On day 7, cells were stained with anti-CD8a (PerCP-Cy5.5) and anti-Tim3 (BV421) antibodies for flow cytometry or plate reader analysis.
Because TCF1 expression positively correlates with T cell stemness, the greater signal of EGFP a T cell expresses, the less differentiated the T cell is. Furthermore, if the compound also facilitates T cells proliferation, there would be more T cells per well in comparison to the untreated control. Therefore, a compound that not only maintains TCF-1 expression but also facilitates T cell growth would produce the strongest green fluorescence intensity. […] GlcA stands for glucuronic acid.

P14 CD8+ T cells = type: in vivo, mouse
[1] = system: MC38 TSA-reactive CD8+ TILs; assay: Rapid expansion of TSA-reactive CD8+ TILs from MC38 tumors; type: cell-based, mouse
Procedure: Sugars were added at the beginning or during the expansion of the TILs, and kept till the end of expansion. On expansion day 9, phenotypes of the expanded T cells were assessed, and the cells were used for adoptive transfer (FIG. 6E). For adoptive transfer, 0.5 million cells (B16-OVA or MC38) were inoculated subcutaneously on each mouse on day 0, Listeria monocytogenes-OVA (LM-OVA) infection 0.5 million CFU/mice on day 1, and blood analysis was recorded on day 7.

OVA-specific TILs = assay: In vivo expansion of expanded OVA-specific TILs after LM-OVA challenge; set-up: species or system mouse; conditions: naïve mice; vs T cells expanded without added sugars
CD8+ OT-I T cells = assay: OT-I splenocyte culture with K-Ras(G12C) inhibitors; type: cell-based, mouse; conditions: 5 μM
hPBMCs [2] = assay: Donor hPBMC expansion with irradiated feeder cells; type: cell-based, human; conditions: 2 μM
hPBMCs [3] = assay: Donor hPBMC expansion with irradiated feeder cells; type: cell-based, human; conditions: 2 μM; remark: listed apart in the source
Procedure: (FIG. 9A) Donor hPBMCs were activated twice with irradiated (50 Gy) feeder cell mixture, initially on day 0 and then similarly on day 6. […] (FIG. 9C) Gated CD8^+ hPBMCs were analyzed for the expression of inhibitory receptors Tim-3 and PD-1 (terminally exhausted phenotype downregulation not statistically significant in either donor). (FIG. 9D) the expression of Tim-3 and TCF-1. (FIG. 9E) the expression of CCR7 and CD45RA.
Donor hPBMC cells were co-cultured 1:1 with an irradiated (50 Gy) mixture of hPBMCs from five different donors (henceforth, feeder cells). Irradiation arrests cell division, yet these feeder cells retain the ability to provide extracellular secretions to help donor cells proliferate. Cytokine signaling and HLA mismatch provides for robust donor hPBMC activation. Donor hPBMCs were activated twice with the irradiated feeder cell mixture, initially on day 0 and then similarly on day 6 (FIG. 9A). Beginning on day 0, donor hPBMCs were continuously cultured with 300 IU/mL IL2 and with or without K-Ras(G12C) inhibitor 12 (2 μM) (FIG. 9A).

M8 tetramer+ CD8+ TILs = assay: Rapid expansion of M8 tetramer+ CD8+ TILs from MC38 tumors; type: cell-based, mouse; conditions: 5 μM
Excerpt: We further observed that K-Ras(G12C) inhibitor 12 prevents the generation of terminally exhausted (PD-1^+, Tim-3^+) antigen-specific CD8^+ tumor infiltrating lymphocytes (TILs) and facilitates production of progenitor-like (Tpex, Tim-3^−, TCF-1^+) antigen-specific CD8^+ TILs during in vitro expansion. Specifically, to elucidate the ability of K-Ras(G12C) inhibitor 12 to modulate properties of tumor infiltrating lymphocytes (TILs) in vitro, we utilized an MC38 murine colonic cancer model. C57BL/6J (B6) mice were inoculated with MC38 cells. Tumors were grown for 14 days and then harvested. Antigen specific (H-2K^b-restricted MuLV p15E604-611-specific, henceforth M8 tetramer^+) CD8^+ TILs were isolated. M8 tetramer^+ CD8^+ TILs were subjected to rapid expansion. On day 1 of rapid expansion, TILs were added 1:100 with irradiated BALB/c splenocytes and incubated with 1500 IU/mL IL2 for proliferation, […] anti-CD3 (mouse) antibody for activation, and with or without K-Ras(G12C) inhibitor 12 (5 μM).

K-Ras(G12C) Inhibitor 9
expression of inhibitory receptors (Tim-3+PD-1) (OT-I splenocytes): decreased | proliferation of CAR-T cells (anti-GD2 CAR-T cells; 2 or 3 uM): facilitated the proliferation | expression of inhibitory receptors (PD-1, LAG3, Tim-3 and CD39) of anti-GD2 CAR-T cells (anti-GD2 CAR-T cells): decreased the expression of inhibitory receptors | progenitor features of anti-GD2 CAR-T cells (anti-GD2 CAR-T cells): increased progenitor features

OC[C@H]1O[C@@](CO)(O[C@H]2O[C@H](CO)[C@@H](O)[C@H](O)[C@H]2O)[C@@H](O)[C@@H]1O [Sucrose, sucrose]
Fold of proliferation, Normalized to W/O (P14 cells; Day6): 1.80 fold | Tim3^−TCF-1^+ ratio of CD8^+ T cells (%) (P14 cells; Day6, w/o 55.0): 89.8% | Fold of proliferation, Normalized to W/O (P14 cells; Day9): 2.85 fold | Tim3^−TCF-1^+ ratio of CD8^+ T cells (%) (P14 cells; Day9, w/o 3.5): 48.6% | Tim3^−TCF-1^+ ratio of CD8^+ T cells (%) (OT-1 cells; w/o 2.6): 41.2% | activity at 80000 µM (OT-1 cells; Mus musculus, Splenocyte, 168 h, OT-1 cells, read-out: Proliferation fold, Normalized to W/O): 86% | percentages and total numbers of expanded virus-specific P14 CD8+ T cells in the blood (P14 CD8+ T cells; 7 dpi LCMV-Cl13, cells pre-treated in vitro, vs co-transferred untreated P14 cells): significantly higher | percentages and total numbers of expanded virus-specific P14 CD8+ T cells in the spleen and liver (P14 CD8+ T cells; 14 dpi LCMV-Cl13, cells treated in vitro, vs untreated): significantly higher | cell surface anti-CLA (Cutaneous Lymphocyte-associated Antigen) staining [1]: significant increase | proliferation of transferred expanded cells after LM-OVA challenge (OVA-specific TILs): better proliferation

C=CC(=O)N1CCN(C(=O)CNc2cc(I)c(Cl)cc2O)CC1 [K-Ras(G12C) inhibitor 12]
cell expansion (CD8+ OT-I T cells; OT-I): does not compromise cell expansion | generation of progenitor-like T cells (CD8+ OT-I T cells; OT-I culture model): effectively promoted the generation of progenitor-like T cells | terminally exhausted (PD-1^+, Tim-3^+) CD8^+ OT-I T cells (CD8+ OT-I T cells; day 5, untreated 23.8%): about 0.46% | progenitor-like phenotype (Tim-3^−, TCF-1^+) CD8^+ OT-I T cells (CD8+ OT-I T cells; day 5, untreated 38.6%): 91.6% | TEMRA (donor 3) or TEM (donor 4) CD4^+ hPBMCs (hPBMCs [2]): downregulated | stem-like memory CD4^+ T cells (TSCM, CCR7^+, CD45RA^+) (hPBMCs [2]): upregulated | progenitor-like phenotype (Tim-3^−, TCF-1^+) CD4^+ hPBMCs (hPBMCs [2]; day 13, donor 3, untreated 33.3%): 78.4% | terminally exhausted (PD-1^+, Tim-3^+) CD4^+ hPBMCs (hPBMCs [2]; day 13, donor 4, untreated 14.7%): 7.9% | progenitor-like phenotype (Tim-3^−, TCF-1^+) CD4^+ hPBMCs (hPBMCs [2]; day 13, donor 4, untreated 53.3%): 78.7% | terminally exhausted (PD-1^+, Tim-3^+) CD8^+ hPBMCs (hPBMCs [3]; day 13, donor 3, untreated 3.52%): 2.6% | terminally exhausted (PD-1^+, Tim-3^+) CD4^+ hPBMCs (hPBMCs [3]; day 13, donor 3, untreated 15.7%): 0.83% | progenitor-like phenotype (Tim-3^−, TCF-1^+) CD8^+ hPBMCs (hPBMCs [3]; day 13, donor 3, untreated 15.9%): 51.5% | terminally exhausted (PD-1^+, Tim-3^+) CD8^+ hPBMCs (hPBMCs [3]; day 13, donor 4, untreated 5.01%): 3.27% | progenitor-like phenotype (Tim-3^−, TCF-1^+) CD8^+ hPBMCs (hPBMCs [3]; day 13, donor 4, untreated 6.78%): 39.7% | CD8^+ terminally differentiated effector memory cells (TEMRA, CCR7^−, CD45RA^+) (hPBMCs [3]; donor 3 and donor 4): downregulated | stem-like memory CD8^+ T cells (TSCM, CCR7^+, CD45RA^+) (hPBMCs [3]; donor 3 and donor 4): produced less-differentiated stem-like memory CD8^+ T cells | mean cell expansion (hPBMCs [3]; hPBMCs from both donors): no statistically significant compromise | expression of inhibitory receptors (Tim-3+PD-1) (OT-I splenocytes): decreased | CD8+ cells displaying the terminally exhausted phenotype (PD-1^+ Tim-3^+) (M8 tetramer+ CD8+ TILs; day 8 post rapid expansion, untreated 79.4%): 29.2% | cell expansion (M8 tetramer+ CD8+ TILs; day 8 post-expansion, pre-expansion 0.1×10^6, untreated 1.18×10^6, n=1): 0.397×10^6 TILs | CD8^+ cells displaying the progenitor-like phenotype (Tim-3^−, TCF-1^+) (M8 tetramer+ CD8+ TILs; post-expansion, untreated 0.076%): 12.8% | expression of inhibitory receptors (PD-1, LAG3, Tim-3 and CD39) of anti-GD2 CAR-T cells (anti-GD2 CAR-T cells): decreased the expression of inhibitory receptors | progenitor features of anti-GD2 CAR-T cells (anti-GD2 CAR-T cells): increased progenitor features
